Results from patent US20200108034A1, “USE OF CITRULLINE AND GLUTATHIONE TO INCREASE MUSCLE MASS” (KYOWA HAKKO BIO CO., LTD., priority 2017, published 2020).

What was measured:
Assay type in all cases: in vivo, human
[1] = Serum general clinical chemistry markers, day 0 and day 57; conditions: mean ± SEM, N = 25
Description: (§1) Seventy-five resistance-trained (e.g., regular, resistance training thrice weekly for at least one year prior to the study) males between the ages of 18-35 and having a BMI between 18.5 and 30 kg/m^2 were divided into 3 groups of 25, wherein each group received one of the following supplements: (A) 2 g/day L-citrulline (CIT) and 200 mg/day glutathione (GSH), (B) 2 g/day L-citrulline malate only, or (C) 2.52 g/day of cellulose placebo. Participants were matched by total body mass and then randomly assigned a supplementation protocol in a double-blind fashion. Participants took their supplements one hour prior to their workout on exercise days. On non-exercise days, participants took their supplements in the morning with breakfast.
(§2) Venous blood samples were obtained from the antecubital vein using a standard VACUTAINER™ apparatus into one tube for serum separation and one for whole blood. The serum separation tubes were allowed to stand at room temperature for 15 minutes and then centrifuged for 10 minutes, and serum was removed and placed into a microfuge tube. Blood samples were obtained prior to the first dose of supplement and prior to beginning the resistance training program (day 0) and after eight weeks of supplementation and resistance training (day 57).
(§3) Serum samples were assayed for the following general clinical chemistry markers: glucose, total protein, blood urea nitrogen, creatinine, BUN/creatinine ratio, AST, ALT, albumin, globulin, total bilirubin, alkaline phosphatase. Whole blood samples were assayed for standard cell blood counts with percentage differentials, such as hemoglobin, red blood cell counts, white blood cell counts, neutrophils, lymphocytes, monocytes, eosinophils, and basophils.

[2] = Change in muscle mass after 8-week resistance training with supplementation
Description: as §1
Body composition was measured at days 0, 29, and 57 during the study. Total body mass (kg) was determined on a standard dual beam balance scale (Detecto, Bridgeview, Ill.). Percent body fat, fat mass, and fat-free mass were determined using DEXA (Discovery Series W, commercially available from Hologic, Waltham, Mass.). […] Total body water was determined with bioelectrical impedance spectroscopy (Tanita Inc., Arlington Heights, Ill.) using a low energy, high frequency current (500 micro amps at a frequency of 50 kHz). […]

[3] = Body composition (body mass, DEXA fat mass, bioimpedance total body water) at days 0, 29, 57; conditions: mean ± SEM, N = 25; for Fat Mass: DEXA; for Total Body Water: bioelectrical impedance
Description: as §1
Body composition was measured at days 0, 29, and 57 during the study. Total body mass (kg) was determined on a standard dual beam balance scale (Detecto, Bridgeview, Ill.). Percent body fat, fat mass, and fat-free mass were determined using DEXA (Discovery Series W, commercially available from Hologic, Waltham, Mass.). Quality control calibration procedures were performed on a spine phantom (X-CALIBER Model DPA/QDR-1 anthropometric spine phantom, commercially available from Hologic, Waltham, Mass.) and a density step calibration phantom prior to each testing session. Total body water was determined with bioelectrical impedance spectroscopy (Tanita Inc., Arlington Heights, Ill.) using a low energy, high frequency current (500 micro amps at a frequency of 50 kHz).
Participants engaged in a supervised, periodized 4 day per week resistance-training program split into two upper and two lower extremity workouts per week for a total of 8 weeks. Prior to the workout, participants performed a standardized series of stretching exercises. The participants then performed an upper-body resistance-training program consisting of bench press, lat pull, shoulder press, seated row, shoulder shrugs, chest fly, biceps curl, triceps press down, and abdominal curls, twice per week, and a lower-body program consisting of leg press, back extension, step ups, leg curls, leg extension, heel raises, and abdominal crunches, also performed twice per week. Participants performed 3 sets of 10 repetitions with as much weight as they could lift per set (typically 70 to 80% of 1-RM). Rest periods between exercises and sets lasted no longer than 2 minutes.

[4] = Whole blood cell counts with differentials, day 0 and day 57; conditions: mean ± SEM; for Absolute basophils / Absolute eosinophils / Absolute lymphocytes / Absolute monocytes / Absolute neutrophils / Hb / Platelet / RBC / WBC: N = 25; for Red cell distribution width: N = 25, in % (unit assumed)
Description: as §1, §2, §3

Q: With `NC(=O)NCCC[C@H](N)C(=O)O.O=C(O)CC(O)C(=O)O` [CIT-malate, L-citrulline malate] as the molecule, how does the ALP ([1]; 8 weeks) read?
A: 73.0 ± 4.5 IU/L

Q: And the ALT ([1]; 8 weeks)?
A: 22.9 ± 1.8 IU/L

Q: What about the AST ([1]; 8 weeks) of the same molecule?
A: 21.3 ± 1.3 IU/L

Q: And the Albumin ([1]; 8 weeks)?
A: 4.7 ± 0.05 g/dL

Q: What about the Albumin/Globulin ([1]; 8 weeks) of the same molecule?
A: 1.9 ± 0.06

Q: What about the Bilirubin ([1]; 8 weeks) of the same molecule?
A: 0.6 ± 0.05 mg/dL

Q: What about the Creatinine ([1]; 8 weeks) of the same molecule?
A: 1.1 ± 0.04 mg/dL

Q: And the Glucose ([1]; 8 weeks)?
A: 101.8 ± 3.9 mg/dL

Q: What about the Total protein ([1]; 8 weeks) of the same molecule?
A: 7.2 ± 0.1 g/dL

Q: What about the Urea nitrogen ([1]; 8 weeks) of the same molecule?
A: 16.9 ± 0.7 mg/dL

Q: What about the ALP ([1]; Baseline) of the same molecule?
A: 74.9 ± 4.5 IU/L

Q: And the ALT ([1]; Baseline)?
A: 24.9 ± 2.4 IU/L

Q: And the AST ([1]; Baseline)?
A: 23.8 ± 1.5 IU/L

Q: And the Albumin ([1]; Baseline)?
A: 4.9 ± 0.05 g/dL

Q: What about the Albumin/Globulin ([1]; Baseline) of the same molecule?
A: 2.0 ± 0.07

Q: And the Bilirubin ([1]; Baseline)?
A: 0.7 ± 0.08 mg/dL

Q: And the Creatinine ([1]; Baseline)?
A: 1.1 ± 0.03 mg/dL

Q: What about the Glucose ([1]; Baseline) of the same molecule?
A: 97.5 ± 3.4 mg/dL

Q: What about the Total protein ([1]; Baseline) of the same molecule?
A: 7.4 ± 0.1 g/dL

Q: What about the Urea nitrogen ([1]; Baseline) of the same molecule?
A: 16.8 ± 0.8 mg/dL

Q: What about the “participants who displayed increases in muscle mass at both 4 and 8 weeks” value ([2]; FIG. 2, 25 per group) of the same molecule?
A: 36%

Q: What about the “change in muscle mass” value ([2]; at 4 and 8 weeks, vs placebo, heavy resistance training, FIGS. 1A and 1B) of the same molecule?
A: increase in muscle mass compared to persons receiving only placebo

Q: What about the “Fat Mass” value ([3]; Baseline) of the same molecule?
A: 11.2 ± 1.04 kg

Q: What about the “Total Body Water” value ([3]; Baseline) of the same molecule?
A: 47.9 ± 1.14 kg

Q: What about the “Body Mass” value ([3]; Baseline) of the same molecule?
A: 79.2 ± 2.50 kg

Q: What about the “Fat Mass” value ([3]; supplementation week 4) of the same molecule?
A: 11.5 ± 0.92 kg

Q: What about the “Total Body Water” value ([3]; supplementation week 4) of the same molecule?
A: 48.1 ± 1.16 kg

Q: And the “Body Mass” value ([3]; supplementation week 4)?
A: 79.5 ± 2.52 kg

Q: What about the “Fat Mass” value ([3]; supplementation week 8) of the same molecule?
A: 11.9 ± 0.96 kg

Q: What about the “Total Body Water” value ([3]; supplementation week 8) of the same molecule?
A: 48.4 ± 1.14 kg

Q: What about the “Body Mass” value ([3]; supplementation week 8) of the same molecule?
A: 80.1 ± 2.42 kg

Q: What about the Absolute basophils ([4]; 8 weeks) of the same molecule?
A: 26.8 ± 3.2 µL⁻¹

Q: What about the Absolute eosinophils ([4]; 8 weeks) of the same molecule?
A: 312.8 ± 79.5 µL⁻¹

Q: And the Absolute lymphocytes ([4]; 8 weeks)?
A: 1902.7 ± 85.5 µL⁻¹

Q: What about the Absolute monocytes ([4]; 8 weeks) of the same molecule?
A: 370.5 ± 30.7 µL⁻¹

Q: What about the Absolute neutrophils ([4]; 8 weeks) of the same molecule?
A: 3292.4 ± 318.9 µL⁻¹

Q: What about the Hb ([4]; 8 weeks) of the same molecule?
A: 15.0 ± 0.1 g/dL

Q: And the Platelet ([4]; 8 weeks)?
A: 212.4 ± 8.0 ×10^3/μL

Q: And the RBC ([4]; 8 weeks)?
A: 5.1 ± 0.06 ×10^6/μL

Q: And the WBC ([4]; 8 weeks)?
A: 5.7 ± 0.3 ×10^3/μL

Q: And the “Red cell distribution width” value ([4]; 8 weeks)?
A: 13.5 ± 0.4

Q: And the Absolute basophils ([4]; Baseline)?
A: 31.2 ± 3.3 µL⁻¹

Q: And the Absolute eosinophils ([4]; Baseline)?
A: 130.5 ± 16.6 µL⁻¹

Q: And the Absolute lymphocytes ([4]; Baseline)?
A: 2032.1 ± 131.4 µL⁻¹

Q: What about the Absolute monocytes ([4]; Baseline) of the same molecule?
A: 371.8 ± 25.6 µL⁻¹

Q: And the Absolute neutrophils ([4]; Baseline)?
A: 3652.2 ± 306.1 µL⁻¹

Q: What about the Hb ([4]; Baseline) of the same molecule?
A: 15.1 ± 0.2 g/dL

Q: And the Platelet ([4]; Baseline)?
A: 218.2 ± 10.9 ×10^3/μL

Q: What about the RBC ([4]; Baseline) of the same molecule?
A: 5.1 ± 0.07 ×10^6/μL

Q: What about the WBC ([4]; Baseline) of the same molecule?
A: 6.2 ± 0.3 ×10^3/μL

Q: And the “Red cell distribution width” value ([4]; Baseline)?
A: 13.3 ± 0.1
